“Also recorded” adds a separate entry of the source. Like-named read-outs stand apart in the source and are kept apart here. Ends that are not written are not given here.
What was measured:
[1] = system: P. aeruginosa lipopolysaccharide (LPS)-induced secretion of tumor necrosis factor (TNF) in Raw (264.7) Cells; assay: Neutralization of LPS-induced TNF secretion; type: cell-based; conditions: 1 μg/ml LPS
Method: Anti-inflammatory activity is based on the determination of cytokine stimulation of major inflammatory (e.g. TNF) or anti-inflammatory (e.g., IL-10) cytokines. For in vitro studies, TNF is measured using culture medium from LPS-stimulated macrophage cultures in the presence or absence of peptide treatment. For in vivo studies, cytokine levels in bronchoalveolar lavage (BAL) fluid were quantified using the mouse cytokine multiplex panel assay (Milliplex; Millipore, Billerica, Mass.). The expressions of cytokines were analyzed using the Luminex assay system, based on manufacturer's instructions and our previous publication. Standard recombinant protein solution was used to generate a standard curve for each analyzed protein. Absolute cytokine concentrations were calculated from the standard curve for each cytokine.
A high dosage (1 μg/ml) of LPS was used to stimulate the TNF secretion in raw cells.

[2] = system: methicillin-resistant Staphylococcus aureus (MRSA) clinical isolates; type: cell-based
Method: (§1) The bactericidal activities were examined using standard bacterial culture media (MHB) without the inclusion of human blood.
(§2) Tables 3 and 4 provide the MIC data for the tested AMPs against a variety of infectious species. The following strains were tested: Enterococcus faecium MDR clinical isolates Ef 25153 and Ef 26125; methicillin-resistant Staphylococcus aureus (MRSA) clinical isolates USA300 and 150-10; Klebsiella pneumonia MDR clinical isolates C3, C5, A5, D7 and E6; and Pseudomonas aeruginosa MDR clinical isolates PA 82-8 and PA 129-5. […] Table 5 provides the data for the D-amino acid substituted AMPs and their bactericidal activities against various Klebsiella pneumonia multi-drug resistant (MDR) clinical isolates. All odd number Kp bacteria (isolated prior to colistin treatment; colistin sensitive) are paired with the corresponding even number Kp bacteria (isolated after colistin treatment; colistin resistant) from the same patient. O.D. readings represent the bacterial growth with a background reading of about 0.049+/−0.003.

[3] = system: Enterococcus faecium MDR clinical isolates; type: cell-based
Method: as §1, §2

[4] = system: Klebsiella pneumonia MDR clinical isolates; type: cell-based
Method: as §1, §2

[5] = system: Pseudomonas aeruginosa MDR clinical isolates; type: cell-based
Method: as §1, §2

Pseudomonas aeruginosa = type: cell-based; conditions: for MIC: 18 h
Method: as §1
FIG. 5 illustrates the bactericidal activity of the 30 amino acid AMP series against Pseudomonas aeruginosa (by kinetic assay) over time (hours). […] OD reading, at 570 nm, represents bacterial growth; background reading (˜0.05) was subtracted from sample readings. Bolded concentration indicates the determined MIC. For example, MIC for SEQ ID No. 4 was 4 μM, MIC for SEQ ID No. 8 was 2 μM, MIC for SEQ ID No. 7 was 2 μM, MIC for SEQ ID No. 5 was 2 μM, MIC for SEQ ID No. 6 was 2 μM, and MIC for SEQ ID No. 9 was 2 μM.
FIG. 6 illustrates the bactericidal activity of the 24 amino acid AMPs series against Pseudomonas aeruginosa (by kinetic assay) over time (hours). […] OD reading, at 570 nm, represents bacterial growth; background reading (˜0.05) was subtracted from sample readings. Bolded concentration indicates the determined MIC.

[6] = In vivo toxicity / maximum tolerated dose; parameters: species or system Mice (strain: Swiss Webster); conditions: for maximum tolerated dose (MTD): i.v., Swiss Webster mice
Method: The modified AMPs show a lower toxicity and higher maximum tolerated dosage (MTD) than WLBU2 (SEQ ID No. 26). The MTD for WLBU2 (SEQ ID No. 26) is 15 mg/kg, for Colistin is 10 mg/kg, and SEQ ID No. 15 is 30 mg/kg (FIG. 14A).
Mice (strain: Swiss Webster) were injected with SEQ ID No. 15 peptides intravenously (i.v.) or intraperitoneally (i.p.) at the concentrations indicated. […] Thus, the estimated maximum tolerated dose (MTD) is around 40-50 mpk (i.v.). On a similar setting of testing other AMPS, the MTD for WLBU2 is 15 mpk (i.v.) and 10 mpk (i.v.) for colistin.

P. aeruginosa = assay: In vivo respiratory P. aeruginosa infection; conditions: high dosage bacterial inoculation, FIG. 16
[7] = methicillin-resistant clinical isolates, 18 h

Substance | neutralizing LPS-induced TNF secretion [1] | MIC MRSA 150-10 [2, 7] [µM] | MIC MRSA USA300 [2, 7] [µM] | MIC Ef 25153 ([3]; MDR clinical isolates, 18 h) [µM] | MIC Ef 26125 ([3]; MDR clinical isolates, 18 h) [µM] | MIC A5 ([4]; 18 h) [µM] | MIC C3 ([4]; 18 h) [µM] | MIC C5 ([4]; 18 h) [µM] | MIC PA82 82-8 ([5]; MDR clinical isolates, 18 h) [µM] | MIC PA 129-5 ([5]; MDR clinical isolates, 18 h) [µM] | MIC D7 ([4]; 18 h) [µM] | MIC E6 ([4]; 18 h) [µM] | MIC (Pseudomonas aeruginosa) [µM] | also measured
ILKKWWGTSGGLLGGLLGKVTSVIKGLNNI [SEQ ID No. 3] | good activity; also recorded: display Neutralizing Activities | <32 | <32 | 16 | 16 | 32 | >32 | >32 | >32 | >32 |  |  |  | bactericidal activity (Pseudomonas aeruginosa; kinetic assay, FIG. 5): did not have strong bactericidal activity
ILKKWWKTSKGLLGGLLGGVTSVIKKLKKI [SEQ ID No. 8] |  | 4 | <2 | >4 | <2 | >4 | <2 | 4 | >4 | <2 | <2 | <2 | 2 | 
Colistin [reference compound] | Do Not Neutralize |  |  |  |  |  |  |  |  |  |  |  |  | MIC MRSA 150-10 ([2]; isolate 150-10, Table 3): <16 µM; MIC MRSA USA300 ([2]; isolate USA300, Table 3): <16 µM; MIC Ef 25153 ([3]; isolate Ef 25153, Table 3): <16 µM; MIC Ef 26125 ([3]; isolate Ef 26125, Table 3): <16 µM; MIC A5 ([4]; isolate A5, Table 3): >32 µM; MIC C3 ([4]; isolate C3, Table 3): >32 µM; MIC C5 ([4]; isolate C5, Table 3): >32 µM; MIC D7 ([4]; isolate D7, Table 3): <16 µM; MIC E6 ([4]; isolate E6, Table 3): <16 µM; MIC PA 82-8 ([5]; isolate PA 82-8, Table 3): <16 µM; MIC PA 129-5 ([5]; isolate PA 129-5, Table 3): <16 µM; maximum tolerated dosage (MTD) ([6]; FIG. 14A): 10 mg/kg; maximum tolerated dose (MTD) [6]: 10 mpk
LKKWWKKVKGLLGGLLGK [SEQ ID No. 19, LKKWWKKVKGLLGGLLGK] | good activity; also recorded: Display Neutralizing Activities | <1 | <2 | <2 | <2 | <2 | <2 |  | 8 | <1 | <2 | <2 |  | antimicrobial activity against respiratory P. aeruginosa infection (P. aeruginosa): excellent antimicrobial activity
ILKKWWKTSGGLLGGLLGKVTSVIKGLNNI [SEQ ID No. 4] | good activity; also recorded: display Neutralizing Activities | >4 | >4 | >4 | <2 | >4 | >4 | 4 | >4 | 4 | <2 | >4 | 4 | 
ILKKWWKTSKGLLGGLLGKVTSVIKGLNNI [SEQ ID No. 5] | good activity; also recorded: display Neutralizing Activities | >4 | >4 | >4 | <2 | >4 | 4 | 2 | >4 | <1 | <1 | 4 | 2 | 
LKKWWKKVKGLLGGLLGKVTSVIK [SEQ ID No. 15] |  | 2 | 4 | 2 | <1 | >4 | <2 | 4 | 2 | 1 | 2 | 2 |  | tolerability ([6]; 60 mg/kg i.v.): One mouse injected with 60 mg/kg (mpk, i.v.) died; tolerability ([6]; 30 mpk i.p.): all mice were active and tolerated the dosage; tolerability ([6]; 40 mpk i.v.): all mice were active and tolerated the dosage; MTD ([6]; Swiss Webster, mouse, in vivo, FIG. 14A, read-out: maximum tolerated dosage (MTD)): 30 mg/kg; in vivo toxicity ([6]; figure legends FIG. 14A, FIG. 30): lower toxicity (higher MTD) than WLBU2; also recorded: very low in vivo toxicity; maximum tolerated dose (MTD) [6]: 40-50 mpk
LKKWWKTVKGLLGGLLGKVTSVIK [SEQ ID No. 14] | good activity; also recorded: Display Neutralizing Activities | <2 | <2 | <2 | <2 | >4 | <2 | 4 | <2 | <2 | <2 | <2 |  | antimicrobial activity against respiratory P. aeruginosa infection (P. aeruginosa): excellent antimicrobial activity
ILKKWWKTSKGLLGGLLGKVTSVIKGLKNI [SEQ ID No. 6] | display Neutralizing Activities | <2 | >4 | >4 | <1 | >4 | 4 | 4 | >4 | >4 | 4 | 4 | 2 | 
ILKKWWKTVKGLLGGLLGGVTSVIKKLKKI [SEQ ID No. 9] |  | <2 | <2 | <2 | <2 | >4 | <2 | 4 | >4 | >4 | <2 | <2 | 2 | 
ILKKWWKTSKGLLGGLLGGVTSVIKKLKKI [SEQ ID No. 7] |  | <2 | <2 | >4 | <2 |  | <2 | 4 | 2 | <2 | <2 | <2 | 2 | 
